{
  "source": "paper PMC6214487",
  "about": "(Journal of drug design and research, 2018)",
  "key": {"[1]": {"experiment": "Toxicity to PBMCs, MTS assay", "details": "human, primary peripheral blood mononuclear cells (PBMCs)"}, "[2]": {"system": "PBMCs", "experiment": "Toxicity to PBMCs, MTS assay", "details": "for Therapeutic Index (CC50/IC50): calculated using the median IC50 across all three isolates"}, "[3]": {"system": "HIV-1 isolates from subtypes A, B, and C", "experiment": "Replication in PBMCs, summary over the three isolates tested", "assay_type": "cell-based", "details": "read-out: Median IC50"}, "[4]": {"system": "HIV-1 pseudovirus CA P90A", "experiment": "organism not typed", "assay_type": "cell-based", "details": "for IC50: read-out: IC50, CA P90A virus"}, "[5]": {"biological_target": "HIV-1 CA (Human immunodeficiency virus type 1 group M subtype B, UniProt P12493)", "details": "capsid 30 μM, compound 50 μM, compared to DMSO"}, "[6]": {"system": "HIV-1JR-FL Envpseudotyped viruses", "experiment": "Viral production by p24 quantitation", "assay_type": "cell-based", "details": "20 μM, relative to DMSO"}, "[7]": {"system": "HIV-1 pseudovirus CA N57A", "experiment": "organism not typed", "assay_type": "cell-based", "details": "for IC50: read-out: IC50, CA N57A virus"}, "[8]": {"system": "HIV-1 pseudovirus CA K70A", "experiment": "organism not typed", "assay_type": "cell-based", "details": "for IC50: read-out: IC50, CA K70A virus"}, "[9]": {"system": "AMLV Envpseudotyped HIV-1", "assay_type": "cell-based", "details": "single round infection assay"}, "[10]": {"biological_target": "purified recombinant RT (Human immunodeficiency virus type 1 group M subtype B, UniProt P04585)", "experiment": "Colorimetric reverse transcriptase assay kit", "details": "CX06 15 μM, PF-74 1.5 μM, TMC278 1 nM, relative to DMSO"}, "[11]": {"system": "HIV-1 pseudovirus CA wild-type", "experiment": "organism not typed", "assay_type": "cell-based", "details": "for IC50: read-out: IC50, Wild-type virus"}, "[12]": {"system": "VSV-G pseudotyped HIV-1 in TZM-bl cells", "assay_type": "cell-based"}, "[13]": {"system": "U87.CD4. cells", "assay_type": "cell-based, human"}, "[14]": {"system": "293T cells", "assay_type": "cell-based, human"}, "[15]": {"system": "HIV-1 pseudovirus CA N74D", "experiment": "organism not typed", "assay_type": "cell-based", "details": "for IC50: read-out: IC50, CA N74D virus"}, "[16]": {"system": "HIV-1 pseudovirus CA Q63A", "experiment": "organism not typed", "assay_type": "cell-based", "details": "for IC50: read-out: IC50, CA Q63A virus"}, "[17]": {"system": "HIV-1JR-FLEnv infected U87.CD4.CCR5 cells", "experiment": "Q-PCR analysis of viral DNA", "assay_type": "cell-based", "details": "CX06 15 μM"}, "[18]": {"system": "VSV-pseudotyped HIV-1 virus", "assay_type": "cell-based"}, "[19]": {"system": "HIV-1 93MW965", "experiment": "Replication of primary isolate in PBMCs", "assay_type": "cell-based", "details": "read-out: IC50 HIV-1 93MW965 Clade C; primary human PBMCs"}, "[20]": {"system": "HIV-1 92RW025", "experiment": "Replication of primary isolate in PBMCs", "assay_type": "cell-based", "details": "read-out: IC50 HIV-1 92RW025 Clade A; primary human PBMCs"}, "[21]": {"system": "HIV-1JR-FL envelope pseudotyped virus", "experiment": "Single-round infection assay, early-stage events", "details": "compound present at infection of target cells, luciferase"}, "[22]": {"system": "HIV-1 JR-CSF", "experiment": "Replication of primary isolate in PBMCs", "assay_type": "cell-based", "details": "read-out: IC50 HIV-1 JR-CSF Clade B; primary human PBMCs"}, "[23]": {"biological_target": "HIV-1 NL4-3 disulfide stabilized CA hexamer (HIV-1 NL4-3)", "experiment": "SPR"}, "[24]": {"details": "Human immunodeficiency virus 1, PBMC"}},
  "note": "Like-named read-outs stand apart in the source and are kept apart here.",
  "data": [
    {"compound": "CC(C)c1nc2c(n1CC(=O)NC(Cc1ccccc1)C(=O)N(C)c1ccccc1)CCCC2", "note": "(stereo not shown) [CX03, 2-(2-(2-isopropyl-4,5,6,7-tetrahydro-1H-benzo[d]imidazol-1-yl)acetamido)-N-methyl-N,3-diphenylpropanamide]", "values": [
      {"measurement": "CC50", "setting": "[1]", "result": "> 100", "unit": "µM"},
      {"measurement": "Therapeutic Index (CC50/IC50)", "setting": "[2]", "result": ">16.9"},
      {"measurement": "IC50", "setting": "[3]; [24]", "result": "5.9 ± 0.9", "unit": "µM"}
    ]},
    {"compound": "CN(C(=O)C(Cc1ccccc1)NC(=O)Cc1cnn(C(F)F)c1)c1ccccc1", "note": "(stereo not shown) [CX04, 2-(2-(1-(difluoromethyl)-1H-pyrazol-4-yl)acetamido)-N-methyl-N,3-diphenylpropanamide]", "values": [
      {"measurement": "CC50", "setting": "[1]", "result": "> 100", "unit": "µM"},
      {"measurement": "Therapeutic Index (CC50/IC50)", "setting": "[2]", "result": ">5.84"},
      {"measurement": "IC50", "setting": "[3]; [24]", "result": "17.1 ± 2.7", "unit": "µM"}
    ]},
    {"compound": "CN(C(=O)C(Cc1ccccc1)NC(=O)Cc1cnn(C)c1C(F)(F)F)c1ccccc1", "note": "(stereo not shown) [CX05, N-methyl-2-(2-(1-methyl-5-(trifluoromethyl)-1H-pyrazol-4-yl)acetamido)-N,3-diphenylpropanamide]", "values": [
      {"measurement": "CC50", "setting": "[1]", "result": "> 100", "unit": "µM"},
      {"measurement": "Therapeutic Index (CC50/IC50)", "setting": "[2]", "result": ">5.58"},
      {"measurement": "IC50", "setting": "[3]; [24]", "result": "18 ± 4.6", "unit": "µM"}
    ]},
    {"compound": "CCn1ncc(CC(=O)NC(Cc2ccccc2)C(=O)N(C)c2ccccc2)c1C(F)F", "note": "(stereo not shown) [CX06, 2-(2-(5-(difluoromethyl)-1-ethyl-1H-pyrazol-4-yl)acetamido)-N-methyl-N,3-diphenylpropanamide]", "values": [
      {"measurement": "Fold increase, CA P90A virus", "setting": "[4]; IC50 relative to wild-type", "result": 1},
      {"measurement": "IC50", "setting": "[4]", "result": "3.1 ± 0.5", "unit": "µM"},
      {"measurement": "Effect on capsid assembly, turbidity at 350 nm", "setting": "[5]", "result": "reduced the multimerization of HIV-1 CA"},
      {"measurement": "Viral production, p24 content", "setting": "[6]", "result": "decreasing the amount of virus released from the cells"},
      {"measurement": "Fold increase, CA N57A virus", "setting": "[7]; IC50 relative to wild-type", "result": 1.4},
      {"measurement": "IC50", "setting": "[7]", "result": "4.3 ± 0.5", "unit": "µM"},
      {"measurement": "Fold increase, CA K70A virus", "setting": "[8]; IC50 relative to wild-type", "result": 1.03},
      {"measurement": "IC50", "setting": "[8]", "result": "3.2 ± 0.3", "unit": "µM"},
      {"measurement": "Inhibition of AMLV Env pseudotyped HIV-1 infection", "setting": "[9]", "result": "almost identical potency as when the HIV-1JR-FLEnv was used"},
      {"measurement": "Effect on RT activity in vitro", "setting": "[10]", "result": "no effect on RT activity"},
      {"measurement": "Fold increase, Wild-type virus", "setting": "[11]; IC50 relative to wild-type", "result": 1},
      {"measurement": "IC50", "setting": "[11]", "result": "3.1 ± 0.5", "unit": "µM"},
      {"measurement": "Nuclear import of INsfGFP complexes", "setting": "[12]", "result": "efficiently inhibited the appearance of INsfGFP spots in the nucleus"},
      {"measurement": "CC50", "setting": "[1]", "result": "> 100", "unit": "µM"},
      {"measurement": "Therapeutic Index (CC50/IC50)", "setting": "[2]", "result": ">17.0"},
      {"measurement": "Cytotoxicity", "setting": "[13]", "result": "not cytotoxic"},
      {"measurement": "Cytotoxicity", "setting": "[14]", "result": "not cytotoxic"},
      {"measurement": "Fold increase, CA N74D virus", "setting": "[15]; IC50 relative to wild-type", "result": 0.8},
      {"measurement": "IC50", "setting": "[15]", "result": "2.4 ± 0.7", "unit": "µM"},
      {"measurement": "IC50", "setting": "[3]; [24]", "result": "5.9 ± 1", "unit": "µM"},
      {"measurement": "Fold increase, CA Q63A virus", "setting": "[16]; IC50 relative to wild-type", "result": 6.9},
      {"measurement": "IC50", "setting": "[16]", "result": "21.4 ± 1.4", "unit": "µM"},
      {"measurement": "2-LTR circles", "setting": "[17]; 24 h", "result": "significantly affected"},
      {"measurement": "Early RT products (RU5)", "setting": "[17]; 48 h", "result": "slightly diminished"},
      {"measurement": "Integrated pro-virus (Alu-PCR)", "setting": "[17]; 48 h", "result": "significantly affected"},
      {"measurement": "Late RT products (U5Ψ)", "setting": "[17]; 48 h", "result": "significantly affected"},
      {"measurement": "Time of addition at which compound is effective", "setting": "[18]", "result": "≤ 6", "unit": "hours post-infection"}
    ]},
    {"compound": "Cc1ccnc2c1NC(=O)c1cccnc1N2C1CC1", "note": "[Nevirapine]", "values": [
      {"measurement": "Nuclear import of INsfGFP complexes", "setting": "[12]", "result": "without effect"}
    ]},
    {"compound": "Cc1[nH]c2ccccc2c1CC(=O)N[C@@H](Cc1ccccc1)C(=O)N(C)c1ccccc1", "note": "[PF-74, reference compound]", "values": [
      {"measurement": "IC50", "setting": "[4]; single-round infection", "result": "0.21 ± 0.04", "unit": "µM"},
      {"measurement": "IC50", "setting": "[7]; single-round infection", "result": "0.25 ± 0.04", "unit": "µM"},
      {"measurement": "IC50", "setting": "[8]; single-round infection", "result": "0.25 ± 0.08", "unit": "µM"},
      {"measurement": "Effect on RT activity in vitro", "setting": "[10]", "result": "no effect on RT activity"},
      {"measurement": "IC50", "setting": "[19]", "result": "0.6 ± 0.1", "unit": "µM"},
      {"measurement": "IC50", "setting": "[20]", "result": "1.5 ± 0.9", "unit": "µM"},
      {"measurement": "IC50", "setting": "[11]; single-round infection", "result": "0.22 ± 0.05", "unit": "µM"},
      {"measurement": "Effect on early-stage events, infectivity of target cells", "setting": "[21]", "result": "dual-stage inhibition profile"},
      {"measurement": "Nuclear import of INsfGFP complexes", "setting": "[12]", "result": "efficiently inhibited the appearance of INsfGFP spots in the nucleus"},
      {"measurement": "CC50", "setting": "[2]; MTS assay, PBMCs", "result": "90.5 ± 5.9", "unit": "µM"},
      {"measurement": "IC50", "setting": "[15]; single-round infection", "result": "0.5 ± 0.1", "unit": "µM"},
      {"measurement": "IC50", "setting": "[3]; over the three isolates tested, PBMCs", "result": "0.9 ± 0.5", "unit": "µM"},
      {"measurement": "IC50", "setting": "[16]; single-round infection", "result": "0.4 ± 0.05", "unit": "µM"},
      {"measurement": "IC50", "setting": "[22]", "result": "0.6 ± 0.2", "unit": "µM"}
    ]},
    {"compound": "NUP153 1407-1423 peptide (from UniProt P49790 1407-1423)", "values": [
      {"measurement": "Kd", "setting": "[23]", "result": 202, "unit": "µM"}
    ]}
  ]
}
